In patent publication US7772241B2, “Variolin derivatives and their use as antitumor agents” (Pharma Mar S.A., priority 2001, dated 2010):

Experiments:
[1] = test system: LoVo; assay: Inhibition of cells growth by colorimetric (SRB) assay, LoVo; conditions: for GI50 / CC50: Homo sapiens, LoVo, 48 h; for GI50: read-out: GI50 LOVO, SRB assay, 48 hours exposure; for CC50: read-out: LC50 LOVO, SRB assay, 48 hours exposure; for TGI LOVO: SRB assay, 48 hours exposure
Description: (§1) The finality of these assays is to interrupt the growth of a “in vitro” tumor cell culture by means a continued exhibition of the cells to the sample to be testing.
(§2) This form of the assay employs 96 well cell culture microplates of 9 mm diameter (Faircloth, 1988; Mosmann, 1983). Most of the cell lines are obtained from American Type Culture Collection (ATCC) derived from different human cancer types.
(§3) Cells are maintained in RPMI 1640 10% FBS, supplemented with 0.1 g/l penicillin and 0.1 g/l streptomycin sulphate and then incubated at 37° C., 5% CO2 and 98% humidity. For the experiments, cells were harvested from subconfluent cultures using trypsin and resuspended in fresh medium before plating.
(§4) Cells are seeded in 96 well microtiter plates, at 5×10^3 cells per well in aliquots of 195 μl medium, and they are allowed to attach to the plate surface by growing in drug free medium for 18 hours. Afterward, samples are added in aliquots of 5 μl in a ranging from 10 to 10^−8 μg/ml, dissolved in DMSO/EtOH/PBS (0.5:0.5:99). After 48 hours exposure, the antitumor effect are measured by the SRB methodology: cells are fixed by adding 50 μl of cold 50% (wt/vol) trichloroacetic acid (TCA) and incubating for 60 minutes at 4° C. Plates are washed with deionized water and dried. One hundred μl of SRB solution (0.4% wt/vol in 1% acetic acid) is added to each microtiter well and incubated for 10 minutes at room temperature. Unbound SRB is removed by washing with 1% acetic acid. Plates are air dried and bound stain is solubilized with Tris buffer. Optical densities are read on a automated spectrophotometric plate reader at a single wavelength of 490 nm.
(§5) The values for mean +/−SD of data from triplicate wells are calculated. Some parameters for cellular responses can be calculated: GI=growth inhibition, TGI=total growth inhibition (cytostatic effect) and LC=cell killing (cytotoxic effect).

[2] = test system: SK-OV-3; assay: Inhibition of cells growth by colorimetric (SRB) assay, SK-OV-3; conditions: for GI50 / CC50: Homo sapiens, SK-OV-3, 48 h; for GI50: read-out: GI50 SKOV-3, SRB assay, 48 hours exposure; for CC50: read-out: LC50 SKOV-3, SRB assay, 48 hours exposure; for TGI SKOV-3: SRB assay, 48 hours exposure
Description: as §1, §2, §3, §4, §5

[3] = test system: LoVo-Dox; assay: Inhibition of cells growth by colorimetric (SRB) assay, LoVo-Dox; conditions: for GI50 / CC50: Homo sapiens, 48 h; for GI50: read-out: GI50 LOVO-DOX, SRB assay, 48 hours exposure; for CC50: read-out: LC50 LOVO-DOX, SRB assay, 48 hours exposure; for TGI LOVO-DOX: SRB assay, 48 hours exposure
Description: as §1, §2, §3, §4, §5

[4] = test system: IGROV-ET; assay: Inhibition of cells growth by colorimetric (SRB) assay, IGROV-ET; conditions: for GI50 / CC50: Homo sapiens, 48 h; for GI50: read-out: GI50 IGROV-ET, SRB assay, 48 hours exposure; for CC50: read-out: LC50 IGROV-ET, SRB assay, 48 hours exposure; for TGI IGROV-ET: SRB assay, 48 hours exposure
Description: as §1, §2, §3, §4, §5

[5] = test system: LNCaP; assay: Inhibition of cells growth by colorimetric (SRB) assay, LNCaP; conditions: for GI50 / CC50: Homo sapiens, LNCaP, 48 h; for GI50: read-out: GI50 LN-caP, SRB assay, 48 hours exposure; for CC50: read-out: LC50 LN-caP, SRB assay, 48 hours exposure; for TGI LN-caP: SRB assay, 48 hours exposure
Description: as §1, §2, §3, §4, §5

[6] = test system: DU-145; assay: Inhibition of cells growth by colorimetric (SRB) assay, DU-145; conditions: for GI50 / CC50: Homo sapiens, DU-145, 48 h; for GI50: read-out: GI50 DU-145, SRB assay, 48 hours exposure; for CC50: read-out: LC50 DU-145, SRB assay, 48 hours exposure; for TGI DU-145: SRB assay, 48 hours exposure
Description: as §1, §2, §3, §4, §5

[7] = test system: SK-MEL-28; assay: Inhibition of cells growth by colorimetric (SRB) assay, SK-MEL-28; conditions: for GI50 / CC50: Homo sapiens, SK-MEL-28, 48 h; for GI50: read-out: GI50 MEL-28, SRB assay, 48 hours exposure; for CC50: read-out: LC50 MEL-28, SRB assay, 48 hours exposure; for TGI MEL-28: SRB assay, 48 hours exposure
Description: as §1, §2, §3, §4, §5

[8] = test system: K-562; assay: Inhibition of cells growth by colorimetric (SRB) assay, K-562; conditions: for GI50 / CC50: Homo sapiens, K562, 48 h; for GI50: read-out: GI50 K-562, SRB assay, 48 hours exposure; for CC50: read-out: LC50 K-562, SRB assay, 48 hours exposure; for TGI K-562: SRB assay, 48 hours exposure
Description: as §1, §2, §3, §4, §5

[9] = test system: PANC-1; assay: Inhibition of cells growth by colorimetric (SRB) assay, PANC-1; conditions: for GI50 / CC50: Homo sapiens, PANC-1, 48 h; for GI50: read-out: GI50 PANC-1, SRB assay, 48 hours exposure; for CC50: read-out: LC50 PANC-1, SRB assay, 48 hours exposure; for TGI PANC-1: SRB assay, 48 hours exposure
Description: as §1, §2, §3, §4, §5

[10] = test system: HT-29; assay: Inhibition of cells growth by colorimetric (SRB) assay, HT-29; conditions: for GI50 / CC50: Homo sapiens, HT-29, 48 h; for GI50: read-out: GI50 HT-29, SRB assay, 48 hours exposure; for CC50: read-out: LC50 HT-29, SRB assay, 48 hours exposure; for TGI HT-29: SRB assay, 48 hours exposure
Description: as §1, §2, §3, §4, §5

[11] = test system: A-549; assay: Inhibition of cells growth by colorimetric (SRB) assay, A-549; conditions: for GI50 / CC50: Homo sapiens, A549, 48 h; for GI50: read-out: GI50 A-549, SRB assay, 48 hours exposure; for CC50: read-out: LC50 A-549, SRB assay, 48 hours exposure; for TGI A-549: SRB assay, 48 hours exposure
Description: as §1, §2, §3, §4, §5

[12] = test system: IGROV-1; assay: Inhibition of cells growth by colorimetric (SRB) assay, IGROV-1; conditions: for GI50 / CC50: Homo sapiens, IGROV-1, 48 h; for GI50: read-out: GI50 IGROV, SRB assay, 48 hours exposure; for CC50: read-out: LC50 IGROV, SRB assay, 48 hours exposure; for TGI IGROV: SRB assay, 48 hours exposure
Description: as §1, §2, §3, §4, §5

With `Nc1nccc2c(-c3ccnc(O)n3)c3cccnc3n12` [Compound 80] the GI50 [1] was 4.06 µM, the CC50 [1] was 35.9 µM and the “TGI LOVO” value [1] was 1.48E−05. The GI50 [2] was 12.5 µM, the CC50 [2] was 35.9 µM and the “TGI SKOV-3” value [2] was 3.45E−05. The GI50 [3] was 4.2 µM, the CC50 [3] was 35.9 µM and the “TGI LOVO-DOX” value [3] was 2.01E−05. The GI50 [4] was 2.48 µM, the CC50 [4] was 35.9 µM and the “TGI IGROV-ET” value [4] was 9.45E−06. The GI50 [5] was 0.97 µM, the CC50 [5] was 2.79 µM and the “TGI LN-caP” value [5] was 1.65E−06. The GI50 [6] was 1.81 µM, the CC50 [6] was 35.9 µM and the “TGI DU-145” value [6] was 8.70E−06. For the same molecule, the GI50 [7] was 2.42 µM, the CC50 [7] was 19.7 µM and the “TGI MEL-28” value [7] was 7.08E−06. For the same molecule, the GI50 [8] was 9.88 µM, the CC50 [8] was 35.9 µM and the “TGI K-562” value [8] was 3.59E−05. For the same molecule, the GI50 [9] was 8.41 µM, the CC50 [9] was 35.9 µM and the “TGI PANC-1” value [9] was 2.42E−05. For the same molecule, the GI50 [10] was 2.45 µM, the CC50 [10] was 35.9 µM and the “TGI HT-29” value [10] was 3.59E−05. For the same molecule, the GI50 [11] was 7.73 µM, the CC50 [11] was 32.7 µM and the “TGI A-549” value [11] was 1.59E−05. For the same molecule, the GI50 [12] was 1.55 µM, the CC50 [12] was 24.8 µM and the “TGI IGROV” value [12] was 3.26E−06.

For `Cl.Nc1nccc2c(-c3ccncn3)c3cccnc3n12` [Compound 71], the GI50 [1] was 0.318 µM, the CC50 [1] was 33.5 µM and the “TGI LOVO” value [1] was 1.84E−06. The GI50 [2] was 1.06 µM, the CC50 [2] was 33.5 µM and the “TGI SKOV-3” value [2] was 3.00E−06. The GI50 [3] was 0.465 µM, the CC50 [3] was 33.5 µM and the “TGI LOVO-DOX” value [3] was 1.79E−06. For the same molecule, the GI50 [4] was 1.04 µM, the CC50 [4] was 31.9 µM and the “TGI IGROV-ET” value [4] was 2.75E−06. For the same molecule, the GI50 [5] was 0.0502 µM, the CC50 [5] was 1.82 µM and the “TGI LN-caP” value [5] was 2.15E−07. The GI50 [6] was 0.75 µM, the CC50 [6] was 33.5 µM and the “TGI DU-145” value [6] was 2.31E−06. The GI50 [7] was 0.556 µM, the CC50 [7] was 2.5 µM and the “TGI MEL-28” value [7] was 1.18E−06. For the same molecule, the GI50 [8] was 1.7 µM, the CC50 [8] was 33.5 µM and the “TGI K-562” value [8] was 1.30E−05. For the same molecule, the GI50 [9] was 1.07 µM, the CC50 [9] was 33.5 µM and the “TGI PANC-1” value [9] was 3.78E−06. For the same molecule, the GI50 [10] was 1.1 µM, the CC50 [10] was 33.5 µM and the “TGI HT-29” value [10] was 3.35E−06. For the same molecule, the GI50 [11] was 1.1 µM, the CC50 [11] was 11.2 µM and the “TGI A-549” value [11] was 2.70E−06. For the same molecule, the GI50 [12] was 0.797 µM, the CC50 [12] was 4.15 µM and the “TGI IGROV” value [12] was 1.65E−06.

With `CSc1nccc2c(C(C)C)c3cccnc3n12` [Compound 61] the GI50 [1] was 23 µM, the CC50 [1] was at least 38.9 µM and the “TGI LOVO” value [1] was 3.89E−05. The GI50 [2] was 12.4 µM, the CC50 [2] was at least 38.9 µM and the “TGI SKOV-3” value [2] was 2.96E−05. The GI50 [3] was 13.7 µM, the CC50 [3] was at least 38.9 µM and the “TGI LOVO-DOX” value [3] was 3.89E−05. For the same molecule, the GI50 [4] was 7.34 µM, the CC50 [4] was at least 38.9 µM and the “TGI IGROV-ET” value [4] was 2.27E−05. For the same molecule, the GI50 [5] was 8.7 µM, the CC50 [5] was 37.1 µM and the “TGI LN-caP” value [5] was 1.80E−05. The GI50 [6] was 14.9 µM, the CC50 [6] was at least 38.9 µM and the “TGI DU-145” value [6] was 3.89E−05. For the same molecule, the GI50 [7] was 20.2 µM, the CC50 [7] was at least 38.9 µM and the “TGI MEL-28” value [7] was 3.89E−05. The GI50 [8] was 9.79 µM, the CC50 [8] was at least 38.9 µM and the “TGI K-562” value [8] was 2.44E−05. For the same molecule, the GI50 [9] was 11.5 µM, the CC50 [9] was at least 38.9 µM and the “TGI PANC-1” value [9] was 3.83E−05. For the same molecule, the GI50 [10] was 28.9 µM, the CC50 [10] was at least 38.9 µM and the “TGI HT-29” value [10] was 3.89E−05. For the same molecule, the GI50 [11] was 24.6 µM, the CC50 [11] was at least 38.9 µM and the “TGI A-549” value [11] was 3.89E−05. For the same molecule, the GI50 [12] was 15.7 µM, the CC50 [12] was at least 38.9 µM and the “TGI IGROV” value [12] was 3.49E−05.
